Measured values reported in PMC11123979, “Discovery of Nine Dipeptidyl Peptidase-4 Inhibitors from Coptis chinensis Using Virtual Screening, Bioactivity Evaluation, and Binding Studies” (Molecules, 2024).
Read-outs that look alike come from different tables or passages of the source.

Assays:
DPP-4 [1] = target: T1, DPP-4 (Homo sapiens, UniProt P27487); assay: DPP-4 inhibition assay (commercial DPP-4 inhibitor screening assay kit, fluorescence); type: biochemical; conditions: for IC50: dose-response curves, read-out: IC50 value of the DPP-4 inhibitory activity; for inhibition at 30 µM: read-out: DPP-4 inhibition (primary screening)
T1 construct: purchased Cayman Chemical Company 700210
Protocol: The DPP-4 inhibitory activity of 39 potential compounds obtained via virtual screening was tested using a commercial DPP-4 inhibitor screening assay kit (Item No. 700210, Cayman Chemical Company, Ann Arbor, MI, USA), and the kit’s instructions were followed exactly. The fluorescence intensity was measured at an excitation/emission wavelength of 360/460 nm using an EnVision Multilabel Reader (2104 PerkinElmer, Waltham, MA, USA). The possibility of false positives was eliminated by assessing the autofluorescence of each test compound. […] These compounds were prepared at a concentration of 30 μM in deionized water that contained 0.5% DMSO. […] The half-maximal inhibitory concentration (IC50) was determined using GraphPad Prism 9 software.

DPP-4 [2] = target: T1, DPP-4; assay: SPR-based binding assay (BIAcore T200, DPP-4 immobilized on CM5 chip); conditions: 'Affinity' module, 1:1, 25 °C, Tris-HCl pH 8.0
Protocol: The binding affinity between DPP-4 and six alkaloids in Coptis chinensis was evaluated using the BIAcore T200 system (GE Healthcare, Uppsala, Sweden). All SPR-related materials were obtained from GE Healthcare, and DPP-4 (D3446) was purchased from Sigma-Aldrich Chemical Co. (St. Louis, MO, USA). The DPP-4 protein, dissolved in PBS at a concentration of 40 ng/μL, was immobilized onto the surface of a CM5 sensor chip using a standard amine-coupling procedure. The test compounds were prepared at varying concentrations in a solution of Tris-Hcl (pH 8.0) and injected over the surface of the chip at a rate of 30 μL·min^−1 and a temperature of 25 °C. A reference flow cell without the immobilization of DPP-4 served as a control for non-specific binding. […] The chip could be regenerated and reused multiple times after it was treated with glycine–HCl (10 mM; pH 2.0). The test compounds were evaluated using the single-cycle kinetics mode across a two-fold concentration series (1.17–100 µM). The equilibrium constant (KD) was calculated based on the 1:1 reaction ratio between the molecule and protein, using the ‘affinity” module in the Biacore T200 software.

T1 sequence (P27487 whole entry): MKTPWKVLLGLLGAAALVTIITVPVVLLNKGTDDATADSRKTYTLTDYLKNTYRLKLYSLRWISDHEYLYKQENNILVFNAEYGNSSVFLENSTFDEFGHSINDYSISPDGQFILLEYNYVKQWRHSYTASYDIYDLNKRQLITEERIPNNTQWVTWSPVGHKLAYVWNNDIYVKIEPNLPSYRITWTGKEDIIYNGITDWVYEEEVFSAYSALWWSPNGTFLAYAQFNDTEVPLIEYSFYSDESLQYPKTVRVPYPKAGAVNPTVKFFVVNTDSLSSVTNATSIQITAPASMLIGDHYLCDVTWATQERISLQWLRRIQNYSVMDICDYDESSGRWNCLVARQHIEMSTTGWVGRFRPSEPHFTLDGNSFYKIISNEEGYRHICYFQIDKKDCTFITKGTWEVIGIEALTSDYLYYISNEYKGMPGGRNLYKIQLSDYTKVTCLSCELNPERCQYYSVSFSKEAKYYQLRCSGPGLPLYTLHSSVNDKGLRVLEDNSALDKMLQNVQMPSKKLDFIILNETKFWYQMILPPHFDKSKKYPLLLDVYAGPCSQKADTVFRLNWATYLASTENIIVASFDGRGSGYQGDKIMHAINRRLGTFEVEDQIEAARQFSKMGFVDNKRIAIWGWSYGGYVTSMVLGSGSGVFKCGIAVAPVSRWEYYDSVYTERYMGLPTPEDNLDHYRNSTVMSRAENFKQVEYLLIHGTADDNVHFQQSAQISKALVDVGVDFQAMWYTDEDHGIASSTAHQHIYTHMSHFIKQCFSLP

| IC50 (DPP-4 [1]) [µM] | inhibition at 30 µM (DPP-4 [1]; final concentration of 30 μM) [%] | Compound | Kd (DPP-4 [2]) [µM] | inhibition at 30 µM (DPP-4 [1]) [%] |
| --- | --- | --- | --- | --- |
| 53.7 | > 40 | COc1ccc2cc3[n+](cc2c1OC)CCc1cc2c(cc1-3)OCO2 [berberine] | 30 |  |
| 27.4 | > 40 | COc1ccc2cc3[n+](cc2c1O)CCc1cc2c(cc1-3)OCO2 [berberrubine] | 18.8 |  |
| 3.63 | > 40 | COc1ccc2cc3[n+](cc2c1OC)CCc1cc(O)c(O)cc1-3 [demethyleneberberine] |  |  |
| 35.6 | > 40 | COc1cc2c(cc1OC)-c1cc3ccc4c(c3c[n+]1CC2)OCO4 [epiberberine] |  |  |
| 13.4 | > 40 | COc1cc2c(cc1O)CC[n+]1cc3c4c(ccc3cc1-2)OCO4 [groenlandicine] | 15 |  |
| 49.8 | > 40 | COc1cc2c(cc1OC)-c1cc3ccc(OC)c(OC)c3c[n+]1CC2 [palmatine] |  |  |

| Compound | IC50 (DPP-4 [1]) [µM] | inhibition at 30 µM (DPP-4 [1]; final concentration of 30 μM) [%] | Kd (DPP-4 [2]) [µM] | inhibition at 30 µM (DPP-4 [1]) [%] |
| --- | --- | --- | --- | --- |
| COc1cc2c(cc1O)-c1cc3ccc(OC)c(OC)c3c[n+]1CC2 [columbamine] | 3.44 | > 40 | 8.11 |  |
| c1c2c(cc3c1OCO3)-c1cc3ccc4c(c3c[n+]1CC2)OCO4 [coptisine] | 8.91 | > 40 | 13.8 |  |
| COc1cc2c(cc1O)CC[n+]1cc3c(OC)c(OC)ccc3cc1-2 [jatrorrhizine] | 26.9 |  | 12.1 | > 40 |
